Assay results as given in ChEMBL document CHEMBL6177986, “A Perspective on the Strategic Application of Deconstruction-Reconstruction in Drug Discovery” (J Med Chem, 2025).

Tests used:
[1] = target: T1, Phosphatidylinositol 4,5-bisphosphate 3-kinase catalytic subunit delta isoform (Homo sapiens, UniProt O00329); experiment: Inhibition of PI3Kdelta (unknown origin)
T1 sequence (O00329 whole entry): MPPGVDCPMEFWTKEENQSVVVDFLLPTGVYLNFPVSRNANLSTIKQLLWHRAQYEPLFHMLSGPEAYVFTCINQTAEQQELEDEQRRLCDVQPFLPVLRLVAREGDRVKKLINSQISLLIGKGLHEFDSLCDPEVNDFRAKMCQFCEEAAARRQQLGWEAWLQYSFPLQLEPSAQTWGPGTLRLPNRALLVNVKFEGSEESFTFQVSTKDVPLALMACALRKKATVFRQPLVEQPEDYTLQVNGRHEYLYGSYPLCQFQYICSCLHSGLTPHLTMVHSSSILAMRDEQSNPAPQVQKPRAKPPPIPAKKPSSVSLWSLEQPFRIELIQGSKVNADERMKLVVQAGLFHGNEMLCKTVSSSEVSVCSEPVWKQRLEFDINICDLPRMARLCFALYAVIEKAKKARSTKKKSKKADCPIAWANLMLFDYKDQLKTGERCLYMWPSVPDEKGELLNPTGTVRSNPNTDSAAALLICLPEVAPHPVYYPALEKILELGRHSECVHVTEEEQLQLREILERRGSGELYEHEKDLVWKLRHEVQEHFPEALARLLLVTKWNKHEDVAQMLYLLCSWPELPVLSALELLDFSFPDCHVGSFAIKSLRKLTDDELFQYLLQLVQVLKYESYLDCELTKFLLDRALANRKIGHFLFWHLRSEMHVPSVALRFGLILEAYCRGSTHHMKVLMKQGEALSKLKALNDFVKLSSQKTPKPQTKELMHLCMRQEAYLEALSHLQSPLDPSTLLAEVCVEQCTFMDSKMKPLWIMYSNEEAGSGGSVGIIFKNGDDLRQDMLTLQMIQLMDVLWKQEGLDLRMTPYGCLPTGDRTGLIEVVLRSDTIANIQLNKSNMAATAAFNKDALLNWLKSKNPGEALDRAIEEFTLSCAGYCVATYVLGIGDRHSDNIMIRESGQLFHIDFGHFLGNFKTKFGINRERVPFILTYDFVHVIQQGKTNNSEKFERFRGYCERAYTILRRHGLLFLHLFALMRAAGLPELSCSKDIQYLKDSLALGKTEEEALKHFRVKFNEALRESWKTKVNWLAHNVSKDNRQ

[2] = target: Phosphatidylinositol 4,5-bisphosphate 3-kinase catalytic subunit gamma isoform (Homo sapiens, UniProt P48736); experiment: Inhibition of PI3Kgamma (unknown origin)
[3] = target: Phosphatidylinositol 4,5-bisphosphate 3-kinase catalytic subunit alpha isoform (Homo sapiens, UniProt P42336); experiment: Inhibition of PI3Kalpha (unknown origin)
[4] = target: Phosphatidylinositol 4,5-bisphosphate 3-kinase catalytic subunit beta isoform (Homo sapiens, UniProt P42338); experiment: Inhibition of PI3Kbeta (unknown origin)
Sequence of Phosphatidylinositol 4,5-bisphosphate 3-kinase catalytic subunit beta isoform (P42338 whole entry, canonical isoform): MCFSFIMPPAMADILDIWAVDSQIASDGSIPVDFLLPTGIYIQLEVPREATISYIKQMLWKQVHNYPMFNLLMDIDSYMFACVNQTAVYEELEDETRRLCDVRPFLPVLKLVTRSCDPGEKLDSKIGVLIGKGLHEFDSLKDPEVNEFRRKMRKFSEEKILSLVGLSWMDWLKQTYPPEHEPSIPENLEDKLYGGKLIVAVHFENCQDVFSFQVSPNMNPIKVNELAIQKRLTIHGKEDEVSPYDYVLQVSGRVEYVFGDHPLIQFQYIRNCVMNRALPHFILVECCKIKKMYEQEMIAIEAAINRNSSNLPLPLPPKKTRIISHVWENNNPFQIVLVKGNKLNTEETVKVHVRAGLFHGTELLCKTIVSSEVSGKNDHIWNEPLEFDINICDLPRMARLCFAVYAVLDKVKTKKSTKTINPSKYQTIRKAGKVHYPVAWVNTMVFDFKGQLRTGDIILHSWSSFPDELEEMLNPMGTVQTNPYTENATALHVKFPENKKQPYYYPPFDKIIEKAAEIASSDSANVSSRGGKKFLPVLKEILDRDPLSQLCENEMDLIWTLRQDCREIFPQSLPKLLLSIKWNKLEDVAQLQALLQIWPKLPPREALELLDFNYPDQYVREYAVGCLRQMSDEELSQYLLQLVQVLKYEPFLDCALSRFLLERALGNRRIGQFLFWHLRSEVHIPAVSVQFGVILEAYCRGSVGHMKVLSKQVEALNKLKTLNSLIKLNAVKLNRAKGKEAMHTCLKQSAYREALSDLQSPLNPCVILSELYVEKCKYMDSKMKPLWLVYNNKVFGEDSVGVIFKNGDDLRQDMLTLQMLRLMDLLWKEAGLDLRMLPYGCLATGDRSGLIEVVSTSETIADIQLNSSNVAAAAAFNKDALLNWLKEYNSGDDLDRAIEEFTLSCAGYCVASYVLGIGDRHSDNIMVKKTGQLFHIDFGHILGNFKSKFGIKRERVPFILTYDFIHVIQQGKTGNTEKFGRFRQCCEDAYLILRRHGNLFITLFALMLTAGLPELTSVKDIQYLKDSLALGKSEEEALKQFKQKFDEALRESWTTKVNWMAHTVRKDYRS

Sequence of Phosphatidylinositol 4,5-bisphosphate 3-kinase catalytic subunit alpha isoform (P42336 whole entry, canonical isoform): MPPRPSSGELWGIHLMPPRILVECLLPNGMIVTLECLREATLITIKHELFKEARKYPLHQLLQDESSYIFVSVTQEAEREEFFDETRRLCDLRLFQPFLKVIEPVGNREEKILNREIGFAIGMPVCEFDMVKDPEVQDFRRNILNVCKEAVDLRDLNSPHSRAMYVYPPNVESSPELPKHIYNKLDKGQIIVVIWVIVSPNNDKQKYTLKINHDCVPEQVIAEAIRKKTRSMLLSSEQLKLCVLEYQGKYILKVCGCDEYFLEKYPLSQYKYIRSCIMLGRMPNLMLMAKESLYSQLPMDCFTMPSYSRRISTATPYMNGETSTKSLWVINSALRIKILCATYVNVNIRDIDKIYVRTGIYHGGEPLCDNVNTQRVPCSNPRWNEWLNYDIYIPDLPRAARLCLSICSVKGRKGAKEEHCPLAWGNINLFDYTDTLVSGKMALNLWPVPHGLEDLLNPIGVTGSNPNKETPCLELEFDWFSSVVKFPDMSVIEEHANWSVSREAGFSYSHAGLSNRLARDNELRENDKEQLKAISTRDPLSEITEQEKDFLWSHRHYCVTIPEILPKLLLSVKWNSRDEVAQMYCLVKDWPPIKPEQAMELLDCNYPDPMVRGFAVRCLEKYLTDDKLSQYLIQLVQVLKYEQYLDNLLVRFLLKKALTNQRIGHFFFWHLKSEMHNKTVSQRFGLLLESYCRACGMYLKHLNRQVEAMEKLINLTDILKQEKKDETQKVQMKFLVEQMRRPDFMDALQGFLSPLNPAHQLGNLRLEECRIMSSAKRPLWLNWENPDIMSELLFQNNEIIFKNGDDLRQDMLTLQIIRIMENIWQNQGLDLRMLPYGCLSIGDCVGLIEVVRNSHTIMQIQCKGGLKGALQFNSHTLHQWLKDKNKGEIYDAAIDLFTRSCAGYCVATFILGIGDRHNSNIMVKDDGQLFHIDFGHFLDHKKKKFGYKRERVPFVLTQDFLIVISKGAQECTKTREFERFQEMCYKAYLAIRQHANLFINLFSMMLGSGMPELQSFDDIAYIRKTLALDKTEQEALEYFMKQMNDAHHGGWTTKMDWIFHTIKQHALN
Sequence of Phosphatidylinositol 4,5-bisphosphate 3-kinase catalytic subunit gamma isoform (P48736 whole entry, canonical isoform): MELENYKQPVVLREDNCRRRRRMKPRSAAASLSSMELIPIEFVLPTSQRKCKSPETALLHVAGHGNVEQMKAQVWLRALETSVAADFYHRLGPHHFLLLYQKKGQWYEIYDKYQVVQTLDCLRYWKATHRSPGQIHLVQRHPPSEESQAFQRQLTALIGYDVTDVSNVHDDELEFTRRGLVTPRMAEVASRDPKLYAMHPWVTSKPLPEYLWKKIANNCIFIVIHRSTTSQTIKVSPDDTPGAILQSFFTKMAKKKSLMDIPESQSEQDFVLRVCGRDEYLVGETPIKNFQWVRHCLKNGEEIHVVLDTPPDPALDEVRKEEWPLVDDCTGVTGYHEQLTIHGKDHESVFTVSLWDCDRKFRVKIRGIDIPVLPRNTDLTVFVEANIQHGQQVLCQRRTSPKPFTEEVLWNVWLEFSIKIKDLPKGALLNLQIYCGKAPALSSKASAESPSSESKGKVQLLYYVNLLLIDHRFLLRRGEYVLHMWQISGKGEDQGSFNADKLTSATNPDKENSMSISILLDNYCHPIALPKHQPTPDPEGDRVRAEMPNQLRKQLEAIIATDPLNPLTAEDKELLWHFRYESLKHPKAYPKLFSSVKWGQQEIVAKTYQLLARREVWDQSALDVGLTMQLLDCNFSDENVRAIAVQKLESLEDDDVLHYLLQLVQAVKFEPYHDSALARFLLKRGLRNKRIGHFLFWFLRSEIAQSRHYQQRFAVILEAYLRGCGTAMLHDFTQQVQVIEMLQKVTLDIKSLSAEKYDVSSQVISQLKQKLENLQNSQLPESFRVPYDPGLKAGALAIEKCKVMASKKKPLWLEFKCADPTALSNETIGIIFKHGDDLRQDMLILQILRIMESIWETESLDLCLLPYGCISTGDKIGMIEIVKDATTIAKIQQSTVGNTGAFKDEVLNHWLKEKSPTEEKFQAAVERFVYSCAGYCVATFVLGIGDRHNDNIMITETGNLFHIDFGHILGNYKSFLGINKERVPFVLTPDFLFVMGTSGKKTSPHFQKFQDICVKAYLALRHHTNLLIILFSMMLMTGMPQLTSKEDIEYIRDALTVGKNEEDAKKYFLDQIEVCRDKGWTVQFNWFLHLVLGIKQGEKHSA

SMILES	IC50 [1]	IC50 [2]	IC50 [3]	IC50 [4]
COc1ncc(C2=CCOCC2)cc1NS(=O)(=O)c1cn(Cc2ccccc2)c(C)n1	6 nM			
c1cc(-c2ccc3ccncc3c2)c2cc[nH]c2c1			> 32000 nM	
c1cc(-c2ccncc2)c2cc[nH]c2c1		> 50000 nM	> 50000 nM	> 50000 nM

Other lines, results leading:

IC50 [1]	IC50 [2]	IC50 [3]	IC50 [4]	SMILES
160 nM	790 nM	2500 nM	2500 nM	COc1ncc(-c2ccc3ccncc3c2)cc1NS(C)(=O)=O
250 nM	2500 nM	6300 nM	790 nM	COc1ncc(-c2ccncc2)cc1NS(C)(=O)=O
